Measured values as given in patent publication US10183933B2, “Isoindolinone inhibitors of phosphatidylinositol 3-kinase” (Vertex Pharmaceuticals Incorporated, priority 2009, dated 2019).

Target: PI3K-gamma (Homo sapiens, UniProt P48736)
Assay: PI3K inhibition assay (33P-ATP, PI(4,5)P2 substrate), PI3K-gamma; note: 2 nM enzyme
Format: biochemical
Details: not given
Description: One test well also contained 1.5 μL of DMSO with no compound. […] Using a Titertek Multidrop, 50 μL of Reaction Mix [100 mM HEPES pH 7.5, 50 mM NaCl, 10 mM DTT, 0.2 mg/mL BSA, 60 μM phosphatidylinositol(4,5)bisphosphate diC16 (PI(4,5)P2; Avanti Polar Lipids, Cat. No. 840046P) and PI3K isoform of interest (see Table 3 for isoform concentrations)] was added to each well. To initiate the reaction, 50 μL of ATP Mix [20 mM MgCl2, 6 μM ATP (100 μCi/μmole ^33P-ATP)] was added each well, followed by incubating the wells for 30 min. at 25° C. Final concentrations in each well were 50 mM HEPES 7.5, 10 mM MgCl2, 25 mM NaCl, 5 mM DTT, 0.1 mg/mL BSA, 30 μM PI(4,5)P2, 3 μM ATP, and the PI3K isoform of interest (see Table 2). Final compound concentrations in each well ranged from 10 μM to 1 nM.
After incubation, the reactions in each well were quenched by addition of 50 μL of stop solution [30% TCA/Water, 10 mM ATP]. […] 50 μL of scintillation fluid was added to each well and the plate read on a Perkin-Elmer TopCount™ NXT liquid scintillation counter to obtain ^33P-counts representing inhibition values.
The value for the background well was subtracted from the value obtained for each test well and the data were fit to the competitive tight binding Ki equation described by Morrison and Stone, Comments Mol. Cell Biophys.

Chain of PI3K-gamma (P48736 whole entry, species assumed): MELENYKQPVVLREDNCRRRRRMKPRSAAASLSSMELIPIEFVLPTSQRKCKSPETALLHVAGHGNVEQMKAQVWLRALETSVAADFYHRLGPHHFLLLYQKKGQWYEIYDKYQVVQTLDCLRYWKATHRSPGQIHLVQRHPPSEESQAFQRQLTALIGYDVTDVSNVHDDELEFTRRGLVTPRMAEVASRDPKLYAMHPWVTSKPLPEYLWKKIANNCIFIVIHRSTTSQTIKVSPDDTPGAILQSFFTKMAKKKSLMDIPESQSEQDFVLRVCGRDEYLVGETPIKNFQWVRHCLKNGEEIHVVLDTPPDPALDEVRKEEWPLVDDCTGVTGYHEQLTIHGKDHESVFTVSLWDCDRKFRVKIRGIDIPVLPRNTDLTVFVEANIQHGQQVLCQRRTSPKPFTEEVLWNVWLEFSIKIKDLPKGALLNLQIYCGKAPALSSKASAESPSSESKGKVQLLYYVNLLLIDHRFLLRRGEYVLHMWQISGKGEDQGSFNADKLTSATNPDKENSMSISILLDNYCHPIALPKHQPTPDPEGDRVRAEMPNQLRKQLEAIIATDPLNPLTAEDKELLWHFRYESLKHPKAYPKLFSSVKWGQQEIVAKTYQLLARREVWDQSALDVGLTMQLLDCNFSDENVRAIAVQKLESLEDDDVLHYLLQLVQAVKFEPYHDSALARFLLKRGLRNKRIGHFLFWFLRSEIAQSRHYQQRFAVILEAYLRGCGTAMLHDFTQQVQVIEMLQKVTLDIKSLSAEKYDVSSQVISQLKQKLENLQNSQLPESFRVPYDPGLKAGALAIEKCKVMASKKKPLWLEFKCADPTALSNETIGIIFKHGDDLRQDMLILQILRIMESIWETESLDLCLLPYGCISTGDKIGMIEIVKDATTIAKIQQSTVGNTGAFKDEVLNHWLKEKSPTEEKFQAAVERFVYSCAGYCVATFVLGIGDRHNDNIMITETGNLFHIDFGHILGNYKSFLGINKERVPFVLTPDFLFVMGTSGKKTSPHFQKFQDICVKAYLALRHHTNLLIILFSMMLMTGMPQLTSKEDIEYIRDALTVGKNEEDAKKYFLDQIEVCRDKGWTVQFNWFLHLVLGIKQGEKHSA

`Cc1cc(-c2cncc(OCC(F)F)c2)nc2c1C(=O)N(c1ccn(C3CCOC3)n1)C2` (single isomer, unassigned) [Compound 863] and `Cc1cc(-c2cnc(C)c(OCC(F)F)c2)nc2c1C(=O)N(c1ccn(C3CCOC3)n1)C2` (single isomer, unassigned) [Compound 864] cannot be ordered by Ki: less than 100 nM for the first, less than 100 nM for the second.

First: Cc1cc(-c2cncc(S(=O)(=O)N(C)C)c2)nc2c1C(=O)N(c1ccn(C3CCOC3)n1)C2 (single isomer, unassigned) [Compound 954]
Second: COc1cncc(-c2cc(C)c3c(n2)C(C)(C)N(c2ccn(C[C@H](C)O)n2)C3=O)c1 [Compound 872]
The Ki of the first is lower: less than 100 nM for the first, 100 to 490 nM for the second.

First: COc1cc(-c2ccc3c(c2)CN(c2cn[nH]c2)C3=O)cnc1OC [Compound 13]
Second: COc1cc(-c2ccc3c(n2)CN(c2ccc(N(C)CCN(C)C)nc2)C3=O)cnc1OC [Compound 195]
The Ki of the first is lower: 100 to 490 nM for the first, 500 to 2500 nM for the second. The first binds more tightly here.

First: N#CCn1cc(N2Cc3cc(-c4cncc(S(N)(=O)=O)c4)ccc3C2=O)cn1 [Compound 76]
Second: Cc1cc(-c2cncc([S@+](C)[O-])c2)nc2c1C(=O)N(c1cnn(CC(F)(F)F)c1)C2(C)C [Compound 967]
The Ki of the first is higher: 100 to 490 nM for the first, less than 100 nM for the second.

`COc1cc(-c2ccc3c(n2)C(N2CCCN(C)CC2)N(c2cnn(CC(F)(F)F)c2)C3=O)cnc1OC` (centres unmarked) [Compound 663] and `COc1cc(-c2ccc3c(n2)[C@@H](N2CCOCC2)N(c2cnn(CC(F)(F)F)c2)C3=O)cnc1OC` [Compound 665] fall in the same range of Ki: 500 to 2500 nM for the first, 500 to 2500 nM for the second.

First: COc1cncc(-c2cc(C)c3c(n2)C(OC)N(c2cc[nH]n2)C3=O)c1 (centres unmarked) [Compound 759]
Second: CO/N=C/c1cncc(-c2cc(C)c3c(n2)C(C)(C)N(c2cnn(CC(F)(F)F)c2)C3=O)c1 [Compound 883]
The Ki of the first is higher: 500 to 2500 nM for the first, less than 100 nM for the second. The second binds more tightly here.

`Cc1cc(-c2cncc([S@@+](C)[O-])c2)nc2c1C(=O)N(c1cnn(CC(F)(F)F)c1)C2(C)C` [Compound 968] showed a Ki of less than 100 nM.

System: activated microglia
Assay: Microglia activation assay (LPS-treated mice, Iba1 IHC of brain)
Format: in vivo
Details: 10 mg/kg b.i.d. oral, LPS 0.5 mg/kg i.p., female C57Bl/6J mice
Description: Female C57Bl/6J mice (7 weeks old) were purchased from Jackson Laboratory (Maine, US). Animals were acclimated for a week at standard laboratory conditions (12 hrs light cycles) with free access to rodent chow and water. All procedures were in accordance with the National Institute of Health Guidelines for the care and Use of Laboratory Animals and were approved by IACUCC. The endotoxin Lipopolysaccharide (LPS) (E. coli 011:B4, cat #437627) was purchased from Calbiochem. LPS was dissolved in PBS buffer at a concentration of 0.05 mg/ml and stored in frozen aliquots. At the start of the study, mice received an intraperitoneal (i.p.) injection of LPS (0.5 mg/kg) for three consecutive days. Therapeutic treatment with VRT compounds was started together with the 2nd LPS administration and maintained throughout the study. Compound was dosed twice a day orally by gavage for a total of 4 doses. 24 h following the last LPS injection, and 2 hrs following the last VRT dose, animals were sacrificed by CO2 asphyxiation. […]
Digital images were captured using the Aperio ScanScope Slide Scanner (Aperio Technologies, Vista, Calif.). Images were captured at 20× optical magnification, and analyzed using the software Definiens Developer XD. […] Compound efficacy was calculated as percent decrease in number of activated microglia relative to vehicle control.

With `Cc1cc(-c2cncc(OC(F)F)c2)nc2c1C(=O)N(c1cnn(CC(F)(F)F)c1)C2` [Compound 271] the “percent decrease in number of activated microglia relative to vehicle control” value was 39%.
